The values that follow come from patent US7582300B2, “Modulation of gamma delta T cells to regulate airway hyperresponsiveness” (National Jewish Health, priority 1999, dated 2009).

The subject of one assay is γδ T cells. Kind of assay: Stimulation of γδ T cells / γδ T cell hybridomas in vitro. The following applies: for stimulation of γδ T cell hybridomas: phospholipids tested by the inventors. Format: cell-based.
The subject of a further assay is αβ T cell hybridomas. Kind of assay: Stimulation of αβ T cell hybridomas in vitro. Format: cell-based.

In the case of phosphatidyl-glycerol, the “stimulation of γδ T cell hybridomas” value with γδ T cells was “weakly stimulatory”. Regarding “FGLQLEL (listed as Mycobacterium leprae) [SEQ ID NO:2, peptide from mycobacterial HSP-60 protein (from M. leprae)]”, the “stimulation of γδ T cells by peptides” value in the assay with γδ T cells is “stimulatory for γδ T cells”. Consider FALQLEL [SEQ ID NO:1], for which the “stimulation of γδ T cells by peptides” value in the assay with γδ T cells was “stimulatory for γδ T cells”. Regarding Cardiolipin, the “stimulation of γδ T cell hybridomas” value with γδ T cells was “selectively stimulates γδ T cell hybridomas”. Further, the “stimulation of αβ T cell hybridomas” value in the assay on αβ T cell hybridomas is “not αβ T cell hybridomas”.
